US20250195518A1, “INDAZOLE COMPOUND AND PHARMACEUTICAL USE THEREOF” (Japan Tobacco Inc., priority 2022, published 2025)

target: T1, human H-PGDS (Homo sapiens (Human), UniProt O60760); assay: Human H-PGDS inhibitory activity (enzyme reaction with PGH2, PGD2 ELISA); format: biochemical; conditions: human recombinant H-PGDS 1.6 μg/mL, PGH2 50 μmol/L
Protocol: Using the human H-PGDS expression plasmid DNA (pET28b/hH-PGDS) as a template, PCR (Polymerase Chain Reaction) was performed to amplify a DNA fragment containing human H-PGDS with a NotI recognition cleavage sequence immediately before the translation initiation codon and a BamHI recognition cleavage sequence immediately below the translation end codon. The purified DNA fragment was fused to pET15b (manufactured by Merck KGaA, model number 69661) digested with NotI and BamHI, by using In-Fusion HD Cloning Kit (manufactured by Takara Bio Inc., model number 639649). […] The base sequence of human H-PGDS cloned into the vector was determined by the Dye Terminator method using BigDye Terminator v3.1 Cycle Sequencing Kit (manufactured by Applied Biosystems, model number 4337456). The determined sequence was identical to the sequence of the protein translation region of human H-PGDS (Accession number su NM_014485.2) registered in the NCBI Reference Database. […]
The protein concentration of the human H-PGDS purified fraction was measured with Pierce 660 nm Protein Assay Reagent (manufactured by Thermo Fisher Scientific Inc., model number 22660). […] Human H-PGDS was detected by Western blotting using a rabbit anti-H-PGDS polyclonal antibody (manufactured by LifeSpan BioSciences, Inc, model number LS-B6886). […]

T1 sequence (O60760 whole entry, the tested form may be a part): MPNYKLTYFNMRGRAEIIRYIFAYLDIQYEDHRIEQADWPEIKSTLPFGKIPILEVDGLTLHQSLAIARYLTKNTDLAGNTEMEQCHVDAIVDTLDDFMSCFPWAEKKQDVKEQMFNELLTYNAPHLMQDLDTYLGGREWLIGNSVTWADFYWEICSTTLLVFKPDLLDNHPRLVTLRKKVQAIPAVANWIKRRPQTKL

Row | Structure (SMILES) | IC50 [nM]
1 | C[C@@H](CC(=O)O)C12CCC(NC(=O)N3CCC(c4ncc(F)c5[nH]cc(F)c45)CC3)(CC1)CC2 (single isomer, unassigned) [enantiomer A] | 5
2 | C[C@H](CC(=O)O)C12CCC(NC(=O)N3CCC(c4ncc(F)c5[nH]cc(F)c45)CC3)(CC1)CC2 (single isomer, unassigned) [enantiomer B] | 6

tested on: mdx mice; assay: not given; conditions: Non-patent Document 7; cited from earlier work

Row | Structure (SMILES) | muscle strength | myonecrosis
3 | c1ccc(C(OC2CCN(CCCc3nn[nH]n3)CC2)c2ccccc2)cc1 [HQL-79] | increases muscle strength | suppresses myonecrosis

target: T1, human H-PGDS; assay: Human H-PGDS binding inhibitory activity (AlphaLISA antagonistic assay); conditions: His-tagged human H-PGDS 0.3 nmol/L, biotinylated H-PGDS inhibitor 45 nmol/L
Protocol: Experimental Example 1: Measurement of Human H-PGDS Binding Inhibitory Activity
The H-PGDS binding inhibitory activity of the test compound was measured by AlphaLISA antagonistic assay. A specific protocol is as follows.
In an AlphaPlate-384 Shallow well plate (Cat. 6008350, PerkinElmer) were added and mixed 240 nL/well of DMSO solution as a compound solution or a solvent control, 3 µL/well (final concentration: 45 nmol/L) of biotinylated H-PGDS inhibitor (see below for the production method) diluted with […] DMSO-containing Assay Buffer (50 mM HEPES-NaOH (pH 7.5), 2 mM GSH, 150 mM NaCl, 2 mM MgCl2, 0.005% Surfactant P20), and 2 μL/well (final concentration: 0.3 nmol/L) of His-tagged human H-PGDS (Cat. ATGP1557, ATgen) diluted with Assay Buffer. As a blank, 2 μL/well of Assay Buffer was added instead of His-tagged human H-PGDS. This plate was allowed to stand at room temperature for 60 min, and Nickel Chelate AlphaLISA Acceptor Beads (Cat. AL108C, Perkin Elmer) at 5 μL/well (final concentration: 20 μg/mL) were added and mixed. After allowing to stand at room temperature for 30 min under shading, AlphaScreen Streptavidin donor beads (Cat. 6760002S, Perkin Elmer) were added at 5 μL/well (final concentration: 30 μg/mL) and mixed. After allowing to stand at room temperature for 60 min under shading, AlphaLISA signals (excitation wavelength: 680 nm, measurement wavelength: 615 nm) were measured using Enspire (Perkin Elmer).
The H-PGDS binding inhibitory activity (inhibitory rate) of each test compound was calculated as follows, and the IC50 value was calculated from the inhibitory rate at two concentrations sandwiching 50%.

Row | Structure (SMILES) | IC50 [nM]
4 | Cc1nn(-c2ccc(C(=O)N[C@H]3CC[C@H](C(C)(C)O)CC3)cn2)c2cccc(F)c12 [Example 50] | 74
5 | Cc1nn(-c2ccc(C(=O)N[C@H]3CC[C@H](OC4CCS(=O)(=O)CC4)CC3)cn2)c2cc(F)ccc12 [Example 80] | 17
6 | Cc1nn(-c2ncc(C(=O)N[C@H]3CC[C@H](CC(C)(C)O)CC3)cn2)c2cnccc12 [Example 3, N-(Trans-4-(2-hydroxy-2-methylpropyl)cyclohexyl)-2-(3-methyl-1H-pyrazolo[3,4-c]pyridin-1-yl)pyrimidine-5-carboxamide] | 21
7 | Cc1nn(-c2ncc(C(=O)N[C@H]3CC[C@@](C)(O)CC3)cn2)c2cc(F)ccc12 [Example 204] | 14
8 | CC(C)(O)[C@H]1CC[C@H](NC(=O)c2ccc(-n3nc(Cl)c4ccccc43)nc2)CC1 [Example 17] | 27
9 | Cc1nn(-c2ccc(C(=O)N[C@H]3CC[C@H](C(C)(C)O)CC3)cn2)c2ccccc12 [Example 15] | 12
10 | Cc1nn(-c2ncc(C(=O)NC34CC(C(C)(C)O)(C3)C4)cn2)c2cc(F)ccc12 [Example 7, 2-(6-fluoro-3-methyl-1H-indazol-1-yl)-N-(3-(2-hydroxypropan-2-yl)bicyclo[1.1.1]pentan-1-yl)pyrimidine-5-carboxamide] | 11
11 | CC(C)(O)[C@H]1CC[C@H](NC(=O)c2cnc(-n3nc(C(F)F)c4ccncc43)nc2)CC1 [Example 9, 2-(3-(difluoromethyl)-1H-pyrazolo[3,4-c]pyridin-1-yl)-N-(trans-4-(2-hydroxypropan-2-yl)cyclohexyl)pyrimidine-5-carboxamide] | 13
12 | CS(=O)(=O)CCCO[C@H]1CC[C@H](NC(=O)c2cnc(-n3nc(C(F)F)c4ccccc43)nc2)CC1 [Example 6, 2-(3-(difluoromethyl)-1H-indazol-1-yl)-N-(trans-4-(3-(methylsulfonyl)propoxy)cyclohexyl)pyrimidine-5-carboxamide] | 3
13 | CC(C)(O)C12CC(NC(=O)c3cnc(-n4nc(C(F)F)c5ccccc54)nc3)(C1)C2 [Example 255] | 7
14 | Cc1nn(-c2ccc(C(=O)NC3CCCCC3)cc2)c2ccccc12 [Example 11] | 171
15 | Cc1nn(-c2ccc(C(=O)N[C@H]3CC[C@H](C(C)(C)O)CC3)cn2)c2cc(F)ccc12 [Example 40] | 7
16 | Cc1nc([C@H]2CC[C@H](NC(=O)c3cnc(-n4nc(C)c5ccc(F)cc54)nc3)CC2)no1 [Example 150] | 14
17 | CC(C)(O)C(=O)N1CCC(NC(=O)c2cnc(-n3nc(C(F)F)c4ccc(F)cc43)nc2)CC1 [Example 254] | 14
18 | Cc1nn(-c2ncc(C(=O)N[C@H]3CC[C@H](C(C)(C)O)CC3)cn2)c2c(C#N)cccc12 [Example 95] | 144

Results, then the compound that gave them:

Row | IC50 [nM] | Structure (SMILES)
19 | 41 | Cc1nn(-c2ncc(C(=O)N[C@H]3CC[C@H](O)CC3)cc2F)c2ccccc12 [Example 54]
20 | 200 | Cc1nn(-c2ncc(C(=O)N[C@H]3CC[C@H](O)CC3)cn2)c2cccc(F)c12 [Example 42]
21 | 225 | COc1nn(-c2ncc(C(=O)N[C@H]3CC[C@H](O)CC3)cn2)c2ccccc12 [Example 27]
22 | 71 | Cc1nn(-c2ccc(C(=O)N[C@H]3CC[C@H](O)CC3)cn2)c2cc(F)ccc12 [Example 39]
23 | 3 | CC(C)(O)[C@H]1CC[C@H](NC(=O)c2cnc(-n3nc(Cl)c4ccccc43)nc2)CC1 [Example 24]
24 | 5 | Cc1nn(-c2ncc(C(=O)N[C@H]3CC[C@H](OCC(C)(C)O)CC3)cn2)c2ccccc12 [Example 4, N-(trans-4-(2-hydroxy-2-methylpropoxy)cyclohexyl)-2-(3-methyl-1H-indazol-1-yl)pyrimidine-5-carboxamide]
25 | 374 | Cc1nn(-c2ccc(C(=O)N[C@H]3CC[C@H](O)CC3)cn2)c2c(F)cccc12 [Example 41]
26 | 3 | Cc1nn(-c2ncc(C(=O)N[C@H]3CC[C@H](C(C)(C)O)CC3)cn2)c2cc(F)ccc12 [Example 1, 2-(6-fluoro-3-methyl-1H-indazol-1-yl)-N-(trans-4-(2-hydroxypropan-2-yl)cyclohexyl)pyrimidine-5-carboxamide]
27 | 10 | CC(C)(O)[C@H]1CC[C@H](NC(=O)c2cnc(-n3nc(C(F)(F)F)c4ccccc43)nc2)CC1 [Example 46]
28 | 45 | Cc1nn(-c2ncc(C(=O)N[C@H]3CC[C@H](O)CC3)cn2)c2ccccc12 [Example 18]
